What was measured:
Pyricularia oryzae = test: microbe, parasite or virus in culture; format: cell-based; settings: 168 h, read-out: control compared to the untreated check (radial growth)
Rhizoctonia solani = Rhizoctonia solani (rice sheath blight/potato black scurf) in vitro test, radial growth on potato dextrose agar; format: cell-based; settings: 168 h, 300 ppm in potato dextrose agar, 25° C., 60% relative humidity, seven days, read-out: control compared to the untreated check (radial growth)
Botrytis cinerea = Botrytis cinerea (gray mold) in vitro test, radial growth on potato dextrose agar; format: cell-based; settings: 168 h, 300 ppm in potato dextrose agar, 22° C., 90% relative humidity, seven days, read-out: control compared to the untreated check (radial growth)
Alternaria solani = Alternaria solani (early blight of tomato/potato) in vitro test, radial growth on potato dextrose agar; format: cell-based; settings: 168 h, 300 ppm in potato dextrose agar, 25° C., 60% relative humidity, seven days, read-out: control compared to the untreated check (radial growth)
Colletotrichum capsici = Colletotrichum capsici (anthracnose) in vitro test, radial growth on potato dextrose agar; format: cell-based; settings: Colletotrichum truncatum, 168 h; 300 ppm in potato dextrose agar; 25° C., 60% relative humidity, seven days; read-out: control compared to the untreated check (radial growth)
[1] = system: Septoria lycopersici/Corynespora cassicola (CORYCA); test: Septoria lycopersici/Corynespora cassicola (CORYCA) (leaf spot of tomato) in vitro test, radial growth on potato dextrose agar; format: cell-based; settings: 168 h, 300 ppm in potato dextrose agar, 25° C., 70% relative humidity, seven days, read-out: control compared to the untreated check (radial growth)
Fusarium culmorum = Fusarium culmorum (foot rot of cereals) in vitro test, radial growth on potato dextrose agar; format: cell-based; settings: 168 h, 300 ppm in potato dextrose agar, 25° C., 60% relative humidity, seven days, read-out: control compared to the untreated check (radial growth)
Method: Compounds were dissolved in 0.3% dimethyl sulfoxide and then added to potato dextrose agar medium just prior to dispensing it into petri dishes. 5 mL medium with the compound in the desired concentration was dispensed into 60 mm sterile petri-plates. After solidification each plate was seeded with a 5 mm size mycelial disc taken from the periphery of an actively growing virulent culture plate. Plates were incubated in growth chambers at 25° C. temperature and 60% relative humidity for seven days and then the radial growth was measured and compared to that of the untreated control.

Phakopsora pachyrhizi = Phakopsora pachyrhizi test in soybean, preventive, in vivo on plants; settings: in Glycine max, read-out: Efficacy (% control), disease severity compared to the untreated check

CCN(C)C=Nc1cc(F)cc(Nc2ccc(F)c(F)c2)c1C [Compound 73, N′-(3-((3,4-difluorophenyl)amino)-5-fluoro-2-methylphenyl)-N-ethyl-N-methylformimidamide]
≥ 70%: inhibition of growth at 300 ppm (Pyricularia oryzae) | inhibition of growth at 300 ppm (Rhizoctonia solani) | inhibition of growth at 300 ppm (Botrytis cinerea) | inhibition of growth at 300 ppm (Alternaria solani) | inhibition of growth at 300 ppm (Colletotrichum capsici) | inhibition of growth at 300 ppm [1] | inhibition of growth at 300 ppm (Fusarium culmorum)

CCN(C)C=Nc1cc(C)cc(Cc2ccccc2C)c1Cl [Compound 12, N′-(2-chloro-5-methyl-3-(2-methylbenzyl)phenyl)-N-ethyl-N-methylformimidamide]
≥ 70%: inhibition of growth at 300 ppm (Pyricularia oryzae) | inhibition of growth at 300 ppm (Rhizoctonia solani) | inhibition of growth at 300 ppm (Botrytis cinerea) | inhibition of growth at 300 ppm (Alternaria solani) | inhibition of growth at 300 ppm (Colletotrichum capsici) | inhibition of growth at 300 ppm [1] | inhibition of growth at 300 ppm (Fusarium culmorum)

CCN(C)C=Nc1cc(C)cc(Nc2ccc(F)c(OC)c2)c1Cl [Compound 275, N′-(2-chloro-3-((4-fluoro-3-methoxyphenyl)amino)-5-methylphenyl)-N-ethyl-N-methylformimidamide]
≥ 70%: inhibition of growth at 300 ppm (Pyricularia oryzae) | inhibition of growth at 300 ppm (Rhizoctonia solani) | inhibition of growth at 300 ppm (Alternaria solani) | inhibition of growth at 300 ppm (Colletotrichum capsici) | inhibition of growth at 300 ppm [1] | inhibition of growth at 300 ppm (Fusarium culmorum) | pest or weed control at 500 ppm (Phakopsora pachyrhizi)

CCN(C)C=Nc1cc(Cl)cc(Nc2ccc(OC)cc2)c1C [Compound 162, N′-(5-chloro-3-((4-methoxyphenyl)amino)-2-methylphenyl)-N-ethyl-N-methylformimidamide]
≥ 70%: inhibition of growth at 300 ppm (Pyricularia oryzae) | inhibition of growth at 300 ppm (Rhizoctonia solani) | inhibition of growth at 300 ppm (Alternaria solani) | inhibition of growth at 300 ppm (Colletotrichum capsici) | inhibition of growth at 300 ppm [1] | inhibition of growth at 300 ppm (Fusarium culmorum)

CCN(C)C=Nc1cc(F)cc(Nc2cc(Cl)ccc2C)c1C [Compound 116, N′-(3-((5-chloro-2-methylphenyl)amino)-5-fluoro-2-methylphenyl)-N-ethyl-N-methylformimidamide]
≥ 70%: inhibition of growth at 300 ppm (Pyricularia oryzae) | inhibition of growth at 300 ppm (Alternaria solani) | inhibition of growth at 300 ppm (Colletotrichum capsici) | inhibition of growth at 300 ppm [1] | inhibition of growth at 300 ppm (Fusarium culmorum) | pest or weed control at 500 ppm (Phakopsora pachyrhizi)

CCN(C)C=Nc1cc(C)cc(Nc2ccc(C(C)(C)C)cc2)c1Cl [Compound 25, N′-(3-((4-(tert-butyl)phenyl)amino)-2-chloro-5-methylphenyl)-N-ethyl-N-methylformimidamide]
≥ 70%: inhibition of growth at 300 ppm (Pyricularia oryzae) | inhibition of growth at 300 ppm (Rhizoctonia solani) | inhibition of growth at 300 ppm (Botrytis cinerea) | inhibition of growth at 300 ppm (Alternaria solani) | inhibition of growth at 300 ppm (Colletotrichum capsici) | inhibition of growth at 300 ppm [1] | inhibition of growth at 300 ppm (Fusarium culmorum)

CCN(C)C=Nc1cc(C)cc(Cc2cccc(F)c2)c1C [Compound 5, N-ethyl-N′-(3-(3-fluorobenzyl)-2,5-dimethylphenyl)-N-methylformimidamide]
≥ 70%: inhibition of growth at 300 ppm (Pyricularia oryzae) | inhibition of growth at 300 ppm (Rhizoctonia solani) | inhibition of growth at 300 ppm (Botrytis cinerea) | inhibition of growth at 300 ppm (Alternaria solani) | inhibition of growth at 300 ppm (Colletotrichum capsici) | inhibition of growth at 300 ppm [1] | inhibition of growth at 300 ppm (Fusarium culmorum)

CCN(C)C=Nc1cc(C)cc(Cc2ccccc2Cl)c1Cl [Compound 13, N′-(2-chloro-3-(2-chlorobenzyl)-5-methylphenyl)-N-ethyl-N-methylformimidamide]
≥ 70%: inhibition of growth at 300 ppm (Pyricularia oryzae) | inhibition of growth at 300 ppm (Rhizoctonia solani) | inhibition of growth at 300 ppm (Botrytis cinerea) | inhibition of growth at 300 ppm (Alternaria solani) | inhibition of growth at 300 ppm (Colletotrichum capsici) | inhibition of growth at 300 ppm [1] | inhibition of growth at 300 ppm (Fusarium culmorum)

CCN(C)C=Nc1cc(C)cc(Nc2cccc(F)c2)c1Cl [Compound 35, N′-(2-chloro-3-((3-fluorophenyl)amino)-5-methylphenyl)-N-ethyl-N-methylformimidamide]
≥ 70%: inhibition of growth at 300 ppm (Pyricularia oryzae) | inhibition of growth at 300 ppm (Rhizoctonia solani) | inhibition of growth at 300 ppm (Botrytis cinerea) | inhibition of growth at 300 ppm (Alternaria solani) | inhibition of growth at 300 ppm (Colletotrichum capsici) | inhibition of growth at 300 ppm [1] | inhibition of growth at 300 ppm (Fusarium culmorum)

CCN(C)C=Nc1cc(C)cc(Cc2cccc(Cl)c2)c1C [Compound 3, N′-(3-(3-chlorobenzyl)-2,5-dimethylphenyl)-N-ethyl-N-methylformimidamide]
≥ 70%: inhibition of growth at 300 ppm (Pyricularia oryzae) | inhibition of growth at 300 ppm (Rhizoctonia solani) | inhibition of growth at 300 ppm (Botrytis cinerea) | inhibition of growth at 300 ppm (Alternaria solani) | inhibition of growth at 300 ppm (Colletotrichum capsici) | inhibition of growth at 300 ppm [1] | inhibition of growth at 300 ppm (Fusarium culmorum)

CCN(C)C=Nc1cc(Cl)cc(Nc2cccc(Cl)c2)c1C [Compound 163, N′-(5-chloro-3-((3-chlorophenyl)amino)-2-methylphenyl)-N-ethyl-N-methylformimidamide]
≥ 70%: inhibition of growth at 300 ppm (Pyricularia oryzae) | inhibition of growth at 300 ppm (Rhizoctonia solani) | inhibition of growth at 300 ppm (Botrytis cinerea) | inhibition of growth at 300 ppm (Alternaria solani) | inhibition of growth at 300 ppm (Colletotrichum capsici) | inhibition of growth at 300 ppm [1] | inhibition of growth at 300 ppm (Fusarium culmorum)

CCN(C)C=Nc1cc(C)cc(Cc2ccccc2C)c1C [Compound 4, N′-(2,5-dimethyl-3-(2-methylbenzyl)phenyl)-N-ethyl-N-methylformimidamide]
≥ 70%: inhibition of growth at 300 ppm (Pyricularia oryzae) | inhibition of growth at 300 ppm (Rhizoctonia solani) | inhibition of growth at 300 ppm (Botrytis cinerea) | inhibition of growth at 300 ppm (Alternaria solani) | inhibition of growth at 300 ppm (Colletotrichum capsici) | inhibition of growth at 300 ppm [1] | inhibition of growth at 300 ppm (Fusarium culmorum)

CCN(C)C=Nc1cc(C)cc(Nc2ncc(Cl)cc2C)c1Cl [Compound 112, N′-(2-chloro-3-((5-chloro-3-methylpyridin-2-yl)amino)-5-methylphenyl)-N-ethyl-N-methylformimidamide]
≥ 70%: inhibition of growth at 300 ppm (Pyricularia oryzae) | inhibition of growth at 300 ppm (Alternaria solani) | inhibition of growth at 300 ppm (Colletotrichum capsici) | inhibition of growth at 300 ppm [1] | inhibition of growth at 300 ppm (Fusarium culmorum)

CCN(C)C=Nc1cc(Cl)cc(Cc2ccc(C)cc2)c1C [Compound 105, N′-(5-chloro-2-methyl-3-(4-methylbenzyl)phenyl)-N-ethyl-N-methylformimidamide]
≥ 70%: inhibition of growth at 300 ppm (Pyricularia oryzae) | inhibition of growth at 300 ppm (Rhizoctonia solani) | inhibition of growth at 300 ppm (Botrytis cinerea) | inhibition of growth at 300 ppm (Alternaria solani) | inhibition of growth at 300 ppm (Colletotrichum capsici) | inhibition of growth at 300 ppm (Fusarium culmorum) | pest or weed control at 500 ppm (Phakopsora pachyrhizi)

CCN(C)C=Nc1cc(Cl)cc(Cc2ccccc2C)c1C [Compound 88, N′-(5-chloro-2-methyl-3-(2-methylbenzyl)phenyl)-N-ethyl-N-methylformimidamide]
≥ 70%: inhibition of growth at 300 ppm (Pyricularia oryzae) | inhibition of growth at 300 ppm (Rhizoctonia solani) | inhibition of growth at 300 ppm (Botrytis cinerea) | inhibition of growth at 300 ppm (Alternaria solani) | inhibition of growth at 300 ppm (Colletotrichum capsici) | inhibition of growth at 300 ppm (Fusarium culmorum) | pest or weed control at 500 ppm (Phakopsora pachyrhizi)

CCN(C)C=Nc1cc(C)cc(N(C)c2cc(C)ccc2Cl)c1Cl [Compound 120, N′-(2-chloro-3-((2-chloro-5-methylphenyl)(methyl)amino)-5-methylphenyl)-N-ethyl-N-methylformimidamide]
≥ 70%: inhibition of growth at 300 ppm (Pyricularia oryzae) | inhibition of growth at 300 ppm (Alternaria solani) | inhibition of growth at 300 ppm (Colletotrichum capsici) | inhibition of growth at 300 ppm [1] | inhibition of growth at 300 ppm (Fusarium culmorum) | pest or weed control at 500 ppm (Phakopsora pachyrhizi)

Source: patent US12545639B2, “3-substituted phenylamidine compounds, preparation and use thereof” (PI INDUSTRIES LTD., priority 2019, dated 2026)
